These results are taken from PubChem BioAssay (NCI).

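Exposure lasted 48 hours, with cells grown in 96-well plates and compounds tested at five concentrations. The concentration for 50% growth inhibition is given as GI50. The concentration for full growth arrest is given as TGI.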

Test systems include SNB-75 CNS; BT-549 breast; SK-MEL-2 melanoma; SF-539 CNS; SK-MEL-28 melanoma; EKVX NSCLC; A498 renal; MALME-3M melanoma; SK-MEL-5 melanoma; OVCAR-8 ovarian.
Holding throughout (assay): NCI anticancer screen, dose series, 48 h

As to `Oc1ccc(N=Nc2nccs2)c(O)c1`, the GI50 in the test with SNB-75 CNS is 14.2 µM; in the test on BT-549 breast, 16.1 µM; in the test with SK-MEL-2 melanoma it was 17.1 µM; in the test with SF-539 CNS, 6.66 µM; in the test with SK-MEL-28 melanoma, 10.4 µM; in the test with EKVX NSCLC, 2.1 µM. Also, the GI50 is 18.8 µM in the test on A498 renal, 14.7 µM in the test on MALME-3M melanoma, 3.44 µM with SK-MEL-5 melanoma and 3.75 µM in the test with OVCAR-8 ovarian. The TGI was more than 100 µM in the test with SNB-75 CNS; 57.6 µM in the test on BT-549 breast; 60.3 µM in the test on SK-MEL-2 melanoma; 28.9 µM with SF-539 CNS; 30.7 µM with SK-MEL-28 melanoma; 15.3 µM with EKVX NSCLC. For the same compound, the TGI with A498 renal amounted to 40.5 µM; with MALME-3M melanoma, 34.3 µM; with SK-MEL-5 melanoma, 18.4 µM; in the test on OVCAR-8 ovarian, 23 µM.

Turning to `CNCCn1c(=O)c2cc(OC)c(OC)cc2c2cnc3cc4c(cc3c21)OCO4`, the GI50 was less than 0.01 µM with SNB-75 CNS; 0.0309 µM in the test with BT-549 breast; 2.32 µM in the test on SK-MEL-2 melanoma; less than 0.01 µM in the test on SF-539 CNS; 0.0194 µM in the test with A498 renal; 0.05 µM with MALME-3M melanoma. Besides, the figures for the GI50 in the test on SK-MEL-5 melanoma and in the test with OVCAR-8 ovarian were 0.01 µM and less than 0.01 µM, respectively. Further, the TGI was determined as 0.0658 µM with SNB-75 CNS; 1.79 µM in the test on BT-549 breast; 4.91 µM in the test on SK-MEL-2 melanoma; 0.0103 µM in the test with SF-539 CNS; 0.135 µM with A498 renal; 5.75 µM with MALME-3M melanoma. The figures for the TGI with SK-MEL-5 melanoma and in the test with OVCAR-8 ovarian were 0.0254 µM and 1.34 µM, respectively.

As for `c1ccc2c(c1)c1ccccc1c1ccccc21`, the GI50 in the test on SNB-75 CNS, in the test on BT-549 breast, with SK-MEL-2 melanoma, in the test with SF-539 CNS, in the test on SK-MEL-28 melanoma and in the test on A498 renal was more than 100 µM each time. For the same compound, the GI50 with MALME-3M melanoma, in the test on SK-MEL-5 melanoma and in the test with OVCAR-8 ovarian was more than 100 µM throughout. Moreover, the TGI in the test on SNB-75 CNS, with BT-549 breast, with SK-MEL-2 melanoma, with SF-539 CNS, with SK-MEL-28 melanoma and in the test on A498 renal was more than 100 µM in each case. Also, the TGI in the test on MALME-3M melanoma, in the test on SK-MEL-5 melanoma and in the test with OVCAR-8 ovarian was more than 100 µM throughout.

With `Nc1c(C(=O)Nc2ccccc2Cl)sc2nc3c(cc12)C(=O)CCC3`, the GI50 in the test with SNB-75 CNS is 2.46 µM; in the test on BT-549 breast, more than 100 µM; in the test with SK-MEL-2 melanoma, 1.09 µM; in the test on SF-539 CNS it was 1.15 µM; in the test on SK-MEL-28 melanoma it was 22.4 µM; in the test on A498 renal, 0.229 µM. The figures for the GI50 in the test on MALME-3M melanoma, with SK-MEL-5 melanoma and in the test with OVCAR-8 ovarian were 2.78 µM, 1.02 µM and more than 25 µM, respectively. In addition, the TGI in the test with SNB-75 CNS is more than 84 µM; in the test on BT-549 breast, more than 100 µM; in the test on SK-MEL-2 melanoma, more than 100 µM; in the test on SF-539 CNS, more than 100 µM; with SK-MEL-28 melanoma, more than 100 µM; in the test on A498 renal, more than 100 µM. Further, the TGI with MALME-3M melanoma, in the test on SK-MEL-5 melanoma and with OVCAR-8 ovarian was more than 100 µM throughout.

With `COc1ccc2c(c1)C(C)Cc1c(ncnc1-n1cnc3ccccc31)N2C` (stereo not drawn), the GI50 was 0.47 µM with BT-549 breast; 0.357 µM with SK-MEL-2 melanoma; 0.251 µM in the test with SF-539 CNS; 10.1 µM in the test on SK-MEL-28 melanoma; 0.632 µM in the test with EKVX NSCLC; 0.234 µM in the test with A498 renal. Moreover, the GI50 with SK-MEL-5 melanoma is 0.368 µM; in the test with OVCAR-8 ovarian it was 0.959 µM. Further, the TGI in the test with BT-549 breast is 10.3 µM; with SK-MEL-2 melanoma, 24.6 µM; with SF-539 CNS, 0.774 µM; with SK-MEL-28 melanoma, 22.9 µM; in the test on EKVX NSCLC, 20 µM; in the test with A498 renal it was 10.2 µM. The TGI in the test with SK-MEL-5 melanoma was 1.89 µM; in the test with OVCAR-8 ovarian it was 87.4 µM.

`c1ccc(NCCSc2nc3ccccc3s2)cc1`: the TGI in the test on SNB-75 CNS, with BT-549 breast, in the test on SK-MEL-2 melanoma, with SK-MEL-28 melanoma, with EKVX NSCLC and in the test on A498 renal was more than 100 µM in each case. The values for the TGI with MALME-3M melanoma, in the test on SK-MEL-5 melanoma and with OVCAR-8 ovarian were more than 100 µM, 42.3 µM and more than 100 µM, respectively.

`N#CC(C#N)=C1CCCOc2c1ccc1ccccc21`: the GI50 in the test on BT-549 breast is 98.8 µM; in the test on SF-539 CNS, more than 100 µM; with SK-MEL-28 melanoma, more than 100 µM; with EKVX NSCLC, 46.8 µM; in the test on A498 renal it was 1.84 µM; in the test with MALME-3M melanoma, more than 100 µM. The GI50 with OVCAR-8 ovarian is more than 100 µM. The TGI was more than 100 µM in the test on BT-549 breast; more than 100 µM in the test with SF-539 CNS; more than 100 µM in the test with SK-MEL-28 melanoma; more than 100 µM in the test with EKVX NSCLC; 4.89 µM in the test on A498 renal; more than 100 µM in the test on MALME-3M melanoma. This compound also came in with a TGI in the test with OVCAR-8 ovarian of more than 100 µM.

As for `COc1cc(/C=C2\CCC/C(=C\c3ccc(OCC4CO4)c(OC)c3)C2=O)ccc1OCC1CO1` (stereo not drawn), the GI50 was 2.92 µM with SNB-75 CNS; 2.28 µM with BT-549 breast; 2.43 µM with SK-MEL-2 melanoma; 2.4 µM in the test with SF-539 CNS; 1.81 µM in the test on SK-MEL-28 melanoma; 3.62 µM in the test on A498 renal. The GI50 with MALME-3M melanoma was 1.95 µM; in the test on SK-MEL-5 melanoma it was 1.74 µM; in the test on OVCAR-8 ovarian it was 2.1 µM. In addition, the TGI in the test with SNB-75 CNS was determined as 19.1 µM; with BT-549 breast, 5.3 µM; with SK-MEL-2 melanoma, 5.37 µM; with SF-539 CNS it was 6.78 µM; in the test on SK-MEL-28 melanoma it was 3.43 µM; with A498 renal, 10.1 µM. Moreover, the values for the TGI in the test on MALME-3M melanoma, in the test with SK-MEL-5 melanoma and in the test on OVCAR-8 ovarian were 4.56 µM, 3.52 µM and 9.11 µM, respectively.

Take `C=C1C(=O)OC2C1CC(OC(C)=O)/C(C)=C/CCC1(C)OC21` (stereo not drawn): the TGI in the test on SNB-75 CNS, in the test on BT-549 breast, in the test on SK-MEL-2 melanoma, with SF-539 CNS, in the test on SK-MEL-28 melanoma and with EKVX NSCLC was more than 100 µM in each case. Further, the TGI in the test on MALME-3M melanoma, with SK-MEL-5 melanoma and in the test on OVCAR-8 ovarian was more than 100 µM throughout.
